Usually IC50 stands for the concentration needed to halve the response being measured.

We go through eight compounds from US8293738B2, “Indazole inhibitors of kinase” (Abbott Laboratories, priority 2010, dated 2012).

For assay [1], the target named is T1, KDR (Homo sapiens, UniProt P35968). Kind of assay: KDR cell assay. The class given is cell-based.
Target sequence in this assay (P35968 20-1356, species assumed): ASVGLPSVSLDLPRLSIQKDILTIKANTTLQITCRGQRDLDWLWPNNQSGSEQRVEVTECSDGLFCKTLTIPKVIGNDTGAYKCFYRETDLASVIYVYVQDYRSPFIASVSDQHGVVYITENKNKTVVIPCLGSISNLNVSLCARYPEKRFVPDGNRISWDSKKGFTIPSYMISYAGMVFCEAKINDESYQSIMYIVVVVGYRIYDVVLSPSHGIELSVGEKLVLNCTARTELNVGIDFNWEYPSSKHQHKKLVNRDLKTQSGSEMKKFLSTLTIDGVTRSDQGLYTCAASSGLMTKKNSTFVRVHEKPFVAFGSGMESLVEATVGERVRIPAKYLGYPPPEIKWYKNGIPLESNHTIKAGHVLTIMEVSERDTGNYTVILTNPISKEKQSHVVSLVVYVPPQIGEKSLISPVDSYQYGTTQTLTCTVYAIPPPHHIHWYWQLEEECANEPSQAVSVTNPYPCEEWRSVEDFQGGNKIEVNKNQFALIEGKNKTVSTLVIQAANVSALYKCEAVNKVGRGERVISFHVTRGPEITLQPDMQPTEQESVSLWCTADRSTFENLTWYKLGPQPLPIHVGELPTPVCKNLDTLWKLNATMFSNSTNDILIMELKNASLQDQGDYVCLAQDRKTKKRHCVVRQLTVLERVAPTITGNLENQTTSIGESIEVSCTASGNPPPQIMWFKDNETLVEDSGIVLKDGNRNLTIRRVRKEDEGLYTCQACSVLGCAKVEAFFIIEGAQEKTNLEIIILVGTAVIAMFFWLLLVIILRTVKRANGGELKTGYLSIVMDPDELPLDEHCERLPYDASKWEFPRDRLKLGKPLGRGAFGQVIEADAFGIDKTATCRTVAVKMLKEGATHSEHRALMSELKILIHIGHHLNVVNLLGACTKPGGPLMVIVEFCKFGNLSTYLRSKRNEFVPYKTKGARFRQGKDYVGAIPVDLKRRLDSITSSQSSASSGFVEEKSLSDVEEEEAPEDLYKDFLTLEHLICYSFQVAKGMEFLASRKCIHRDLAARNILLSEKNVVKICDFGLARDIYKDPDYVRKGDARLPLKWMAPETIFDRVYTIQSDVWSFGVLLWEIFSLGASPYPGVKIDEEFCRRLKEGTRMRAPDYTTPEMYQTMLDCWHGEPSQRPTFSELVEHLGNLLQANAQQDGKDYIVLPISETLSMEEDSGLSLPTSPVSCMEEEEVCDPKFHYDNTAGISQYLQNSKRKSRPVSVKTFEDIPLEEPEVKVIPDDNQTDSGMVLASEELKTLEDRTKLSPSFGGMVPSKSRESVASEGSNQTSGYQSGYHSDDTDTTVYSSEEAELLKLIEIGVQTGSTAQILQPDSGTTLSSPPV
Assay [2] addresses T1, KDR. The assay is described as follows: KDR HTRF in vitro kinase assay. The note with it: 1 mM ATP, 60 minutes. Also noted: purified enzyme (His6-KDR 789-1354, MW 63 kD). The class given is biochemical. On the procedure: To determine the activity of the various kinases, a homogenous time-resolved fluorescence (HTRF) in vitro kinase assay was used. (Mathis, G., HTRF(R) Technology. J Biomol Screen, 1999. 4(6): p. 309-314; Alfred J. Kolb, Paul V. Kaplita, David J. Hayes, Young-Whan Park, Christine Pernell, John S. Major and Gerard Mathis, Drug Discovery Today, 1998, 3, 333-342.)
For example for KDR, 7 ng/well of purified enzyme (His6-KDR 789-1354, MW 63 kD) was mixed with 0.5 μM N-biotinylated substrate (Biotin-Ahx-AEEEYFFLA-amide (SEQ. ID. 1)), various concentrations of inhibitor in reaction buffer (50 mM HEPES, pH 7.1, mM MgCl2, 2 mM MnCl2, 0.1% BSA and 1 mM DTT, […] final volume), ATP (1 mM final conc.) in a black 384-well plate. After 60 minutes incubation at room temperature, the reaction was quenched by addition of a buffered EDTA solution (final approximate concentrations: 30 mM EDTA, 0.1% BSA, 0.1% Triton X-100 and 0.24M KF) and a solution of revelation agents (to give 0.084 ng/well streptavidin-XL-665 (Cis-Bio) and 6.5 ng/well antiphsophotyrosine mAb PT66-K Europium kryptate) was added to the reaction mixture. The quenched reaction was allowed to stand at room temperature for 3 hours and was then read in a time-resolved fluorescence detector (InVision, Perkin-Elmer) at 620 nm and 665 nm sequentially with excitation. The ratio between the signal of 620 nm and 665 nm was used in the calculation of the IC50.
Target sequence in this assay (P35968 789-1354): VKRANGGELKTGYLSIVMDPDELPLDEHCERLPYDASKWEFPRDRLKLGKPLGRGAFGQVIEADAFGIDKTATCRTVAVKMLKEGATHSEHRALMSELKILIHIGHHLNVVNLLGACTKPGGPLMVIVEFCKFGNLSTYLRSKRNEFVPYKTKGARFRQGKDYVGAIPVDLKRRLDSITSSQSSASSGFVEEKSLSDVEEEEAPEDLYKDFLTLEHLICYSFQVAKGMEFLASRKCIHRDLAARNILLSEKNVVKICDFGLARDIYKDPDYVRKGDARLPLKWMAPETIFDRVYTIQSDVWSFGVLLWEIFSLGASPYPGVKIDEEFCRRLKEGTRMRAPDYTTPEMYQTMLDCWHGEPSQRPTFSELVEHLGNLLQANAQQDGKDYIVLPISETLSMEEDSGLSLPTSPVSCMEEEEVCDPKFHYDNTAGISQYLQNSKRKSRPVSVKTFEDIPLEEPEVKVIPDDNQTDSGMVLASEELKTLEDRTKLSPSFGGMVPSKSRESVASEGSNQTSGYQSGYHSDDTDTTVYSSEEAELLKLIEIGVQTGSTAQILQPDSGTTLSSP
A general note: TR-FRET usually uses a lanthanide donor and a delayed reading to cut background.

The next assay has as its target T2, Aurora A (Homo sapiens, UniProt O14965).
T2 sequence (O14965 1-403): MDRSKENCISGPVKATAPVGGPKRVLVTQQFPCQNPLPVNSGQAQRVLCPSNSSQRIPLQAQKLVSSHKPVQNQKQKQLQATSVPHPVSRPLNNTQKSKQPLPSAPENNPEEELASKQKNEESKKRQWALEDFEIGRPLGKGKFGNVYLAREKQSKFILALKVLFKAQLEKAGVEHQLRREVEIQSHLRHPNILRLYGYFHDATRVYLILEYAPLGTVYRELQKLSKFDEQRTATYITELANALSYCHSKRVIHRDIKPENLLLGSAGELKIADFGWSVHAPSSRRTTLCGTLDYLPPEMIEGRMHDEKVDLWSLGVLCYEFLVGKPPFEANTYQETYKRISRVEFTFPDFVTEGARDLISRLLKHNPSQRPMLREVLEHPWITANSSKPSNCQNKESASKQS
Kind of assay: Aurora A enzyme assay (time-resolved fluorescence, STK substrate-2). The following applies: 1 mM ATP, 1 hour. The class given is biochemical. As to the method: To determine Aurora A and C activity of representative compounds of the invention, Active Aurora A or C enzyme was incubated in wells of a 384 well plate with biotinylated STK substrate-2 (Upstate), 1 mM ATP, and various concentrations of inhibitors in a Hepes buffer, pH 7.4 containing MgCl2, sodium othrovanadate, and Triton X-100. After 1 hour, the reaction was stopped with EDTA and anti-phospho-STK antibody Europium Cryptate (Upstate) and SA-XL665 (Upstate) were added to detect the phosphopeptide. The amount of phosphorylation was determined by the time-resolved fluorescence ratio of signals at 665 nm and 615 nm. The IC50s were calculated by an exponential fit of the inhibition values with the inhibitor concentrations using Assay Explorer software.

The target in another assay is T3, Aurora B (Homo sapiens, UniProt Q96GD4).
T3 construct: Active Aurora B enzyme (recombinant residues 1-344)
T3 sequence (Q96GD4 whole entry, the tested form may be a part): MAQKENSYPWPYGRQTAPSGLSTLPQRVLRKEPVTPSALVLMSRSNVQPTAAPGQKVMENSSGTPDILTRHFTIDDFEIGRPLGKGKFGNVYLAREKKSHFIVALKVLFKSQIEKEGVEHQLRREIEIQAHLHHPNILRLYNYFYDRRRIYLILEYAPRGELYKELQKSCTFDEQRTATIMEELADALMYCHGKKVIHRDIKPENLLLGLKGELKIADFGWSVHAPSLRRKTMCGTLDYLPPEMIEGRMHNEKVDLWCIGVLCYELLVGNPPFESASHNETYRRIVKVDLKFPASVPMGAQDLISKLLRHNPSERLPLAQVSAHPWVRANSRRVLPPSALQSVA
T3 sequence (Q9NQS7 826-918 partner limits assumed): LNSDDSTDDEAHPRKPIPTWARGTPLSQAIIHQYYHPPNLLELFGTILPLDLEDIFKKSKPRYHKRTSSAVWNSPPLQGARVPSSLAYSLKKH
The assay is described as follows: Aurora B enzyme assay (time-resolved fluorescence, histone H3 peptide). The class given is biochemical. The following applies: 1 mM ATP, 1 hour. As to the method: To determine Aurora B activity of representative compounds of the invention, Active Aurora B enzyme (recombinant residues 1-344) and INCENP (recombinant GST fusion protein (Upstate)) were incubated in wells of a 384 well plate with biotinylted histone H3 peptide residues 1-21 (Upstate), 1 mM ATP, and various concentrations of inhibitors in a HEPES buffer, pH 7.4 containing MgCl2, sodium othrovanadate, and Triton X-100. After 1 hour, the reaction was stopped with EDTA and anti-phospho-histone H3 Europium Cryptate (Cis-Bio) and SA-APC (Phycolink, Prozyme) were added to detect the phosphopeptide. The amount of phosphorylation was determined by the time-resolved fluorescence ratio of signals at 665 nm and 615 nm. The IC50's were calculated by an exponential fit of the inhibition values with the inhibitor concentrations using Assay Explorer software.

Assay [3] has as its system H1299 cells (Human Non-Small Cell Lung Carcinoma). Kind of assay: Induction of polyploidy in H1299 cells, high content analysis. The class given is cell-based. The note with it: NCI-H1299 cells, 48 hours, polyploid = nuclear area >750μ2, read-out: Polyploid HCA IC50. As to the method:
To determine the induction of polyploidy in H1299 cells (Human Non-Small Cell Lung Carcinoma), NCI-H1299 were seeded (4K/well) into 96-well culture plates (tissue culture grade, black, flat-clear bottom) and incubated overnight to produce cell-to-plate adherance Inhibitors at varying concentrations were added into duplicate wells containing cells and culture media (RPMI 1640, 10% fetal calf serum) and incubated at 37 C for 48 hours. The plates were then washed with PBS and the adherent cells fixed by incubating with 3% formalin for 1 hour. After washing four times with PBS, the cells were then stained with Hoechst and subjected to fluorescent (3601/460e) microscopic high content analysis to determine the effect of inhibitors on nuclear size. Polyploid cells (>4N) were defined as those having nuclear area >750μ2. […]

Take `O=C(Nc1ccc(-c2ccc3c(-c4cnn(CCN5CCOCC5)c4)n[nH]c3c2)cc1)Nc1cccc(F)c1` [Example 6, N-(3-fluorophenyl)-N′-(4-{3-[1-(2-morpholin-4-ylethyl)-1H-pyrazol-4-yl]-1H-indazol-6-yl}phenyl)urea]: the IC50 is 187 nM against KDR [1]; 86.1 nM on KDR [2]; 1000 nM on Aurora A; 21.2 nM against Aurora B; 18 nM in assay [3].

For the compound `O=C(Nc1ccc(-c2ccc3c(-c4cn[nH]c4)n[nH]c3c2)cc1)Nc1cccc(F)c1` [Example 9, N-(3-fluorophenyl)-N′-{4-[3-(1H-pyrazol-4-yl)-1H-indazol-6-yl]phenyl}urea], the IC50 was found to be 300 nM on KDR [1]; 76.3 nM against KDR [2]; 221 nM at Aurora A; 32.7 nM against Aurora B; 14 nM in assay [3].

In the case of `O=C(Nc1ccc(-c2ccc3c(-c4cnn(CCO)c4)n[nH]c3c2)cc1)Nc1cccc(F)c1` [Example 10, N-(3-fluorophenyl)-N′-(4-{3-[1-(2-hydroxyethyl)-1H-pyrazol-4-yl]-1H-indazol-6-yl}phenyl)urea], the IC50 against KDR [1] was found to be 206 nM; against KDR [2] it was 51.1 nM; at Aurora A, 294 nM; on Aurora B it was 23.6 nM; in assay [3], 43 nM.

For `Cc1cccc(NC(=O)Nc2ccc(-c3ccc4c(-c5cnn(CCO)c5)n[nH]c4c3)cc2)c1` [Example 12, N-(4-{3-[1-(2-hydroxyethyl)-1H-pyrazol-4-yl]-1H-indazol-6-yl}phenyl)-N′-(3-methylphenyl)urea], the IC50 against KDR [1] was 176 nM; on KDR [2] it was 60 nM; at Aurora A it was more than 12500 nM; on Aurora B, 44.1 nM; in assay [3], 55 nM.

In the case of `O=C(Nc1ccc(-c2ccc3c(-c4cnn(C5CCNCC5)c4)n[nH]c3c2)cc1)Nc1cccc(F)c1` [Example 16, N-(3-fluorophenyl)-N′-{4-[3-(1-piperidin-4-yl-1H-pyrazol-4-yl)-1H-indazol-6-yl]phenyl}urea], the IC50 against KDR [1] was 135 nM; on KDR [2], 44.6 nM; at Aurora A, more than 12500 nM; against Aurora B it was 10.9 nM; in assay [3] it was 216 nM.

For the compound `Cn1cc(-c2n[nH]c3cc(-c4ccc(NC(=O)Nc5cccc(Cl)c5)cc4)ccc23)cn1` [Example 22, N-(3-chlorophenyl)-N′-{4-[3-(1-methyl-1H-pyrazol-4-yl)-1H-indazol-6-yl]phenyl}urea], the half-maximal inhibitory concentration (IC50) at KDR [1] turned out to be 47.5 nM; at KDR [2], 14.8 nM; against Aurora A it was 267 nM; against Aurora B, 32.5 nM; in assay [3] it was 1 nM.

`Cn1cc(-c2n[nH]c3cc(-c4ccc(NC(=O)Nc5ccccc5Cl)cc4)ccc23)cn1` [Example 23, N-(2-chlorophenyl)-N′-{4-[3-(1-methyl-1H-pyrazol-4-yl)-1H-indazol-6-yl]phenyl}urea]: the IC50 stood at 355 nM against KDR [1]; 80.7 nM against KDR [2]; 246 nM against Aurora A; 24.9 nM against Aurora B; 10 nM in assay [3].

Regarding `Cc1cc(NC(=O)Nc2ccc(-c3ccc4c(-c5cnn(C)c5)n[nH]c4c3)cc2)no1` [Example 30, N-(5-methylisoxazol-3-yl)-N′-{4-[3-(1-methyl-1H-pyrazol-4-yl)-1H-indazol-6-yl]phenyl}urea], the IC50 against KDR [1] stood at 123 nM; on KDR [2] it was 32.2 nM; at Aurora A, 299 nM; against Aurora B, 10.3 nM; in assay [3], 1 nM.
